Measured values as given in US10770169B2, “Method of providing a treatment to a subject based on a dynamic pathway map” (THE REGENTS OF THE UNIVERSITY OF CALIFORNIA, priority 2010, dated 2020).

Assays:
[1] = tested on: luminal, basal, claudin-low and ERBB2AMP breast cancer cell lines; assay: Associations of clinically relevant subtypes and response (non-parametric ANOVA or t-test on GI50 ranks); assay type: cell-based, human; conditions: for Subtype specificity: Table 6, most sensitive subtype, FDR p<0.20
How it was run: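 GI50 values were compared between cell-line subtype groups by non-parametric ANOVA or t-test on ranks. P-values from three test sets were combined and FDR-corrected. Significant three-group effects were followed by post-hoc comparison of each group against all others, and FDR p<0.20 counted as significant.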

[2] = tested on: panel of 55 breast cancer cell lines; assay: Cell growth inhibition assay (Cell Titer Glo, 72 h, 9 doses; GI50, TGI, LC50); assay type: cell-based, human; conditions: value is the negative log10 of mol/L
[3] = 600MPE cell line, censored GI50 values
[4] = AU565 cell line, censored GI50 values
[5] = BT20 cell line, censored GI50 values
[6] = BT474 cell line, censored GI50 values
[7] = BT483 cell line, censored GI50 values
[8] = BT549 cell line, censored GI50 values
[9] = CAMA1 cell line, censored GI50 values
[10] = HCC38 cell line, censored GI50 values
[11] = HCC70 cell line, censored GI50 values
[12] = HCC202 cell line, censored GI50 values
[13] = HCC1143 cell line, censored GI50 values
[14] = HCC1187 cell line, censored GI50 values
[15] = HCC1395 cell line, censored GI50 values
[16] = HCC1419 cell line, censored GI50 values
[17] = HCC1428 cell line, censored GI50 values
[18] = HCC1500 cell line, censored GI50 values
[19] = HCC1806 cell line, censored GI50 values
[20] = HCC1937 cell line, censored GI50 values
[21] = HCC1954 cell line, censored GI50 values
[22] = HCC2185 cell line, censored GI50 values
[23] = HCC3153 cell line, censored GI50 values
[24] = LY2 cell line, censored GI50 values
[25] = MCF7 cell line, censored GI50 values
[26] = MDAMB134VI cell line, censored GI50 values
[27] = MDAMB157 cell line, censored GI50 values
[28] = MDAMB175VII cell line, censored GI50 values
[29] = MDAMB231 cell line, censored GI50 values
[30] = MDAMB361 cell line, censored GI50 values
[31] = MDAMB415 cell line, censored GI50 values
[32] = MDAMB436 cell line, censored GI50 values
[33] = MDAMB453 cell line, censored GI50 values
[34] = MDAMB468 cell line, censored GI50 values
[35] = SKBR3 cell line, censored GI50 values
[36] = SUM149PT cell line, censored GI50 values
[37] = SUM159PT cell line, censored GI50 values
[38] = SUM185PE cell line, censored GI50 values
[39] = SUM225CWN cell line, censored GI50 values
[40] = SUM1315MO2 cell line, censored GI50 values

For `CC(/C=C/C(=O)NO)=C\[C@@H](C)C(=O)c1ccc(N(C)C)cc1` [Trichostatin A], the Subtype specificity [1] was “Luminal”, the GI50 [2, 3] was 5.18 and the GI50 [2, 4] was 5.43. It also gave a GI50 [2, 5] of 4.81, a GI50 [2, 6] of 5.00 and a GI50 [2, 7] of 5.00. The GI50 [2, 8] was 5.13, the GI50 [2, 9] was 5.57 and the GI50 [2, 10] was 5.22. It also gave a GI50 [2, 11] of 4.84, a GI50 [2, 12] of 6.04 and a GI50 [2, 13] of 4.77. The GI50 [2, 14] was 5.32, the GI50 [2, 15] was 4.50 and the GI50 [2, 16] was 4.85. The GI50 [2, 17] was 5.73, the GI50 [2, 18] was 4.82 and the GI50 [2, 19] was 4.97. It also gave a GI50 [2, 20] of 4.82, a GI50 [2, 21] of 4.95 and a GI50 [2, 22] of 4.79. The GI50 [2, 23] was 4.62, the GI50 [2, 24] was 4.86 and the GI50 [2, 25] was 5.16. The GI50 [2, 26] was 5.17, the GI50 [2, 27] was 4.68 and the GI50 [2, 28] was 5.23. The GI50 [2, 29] was 5.26, the GI50 [2, 30] was 5.09 and the GI50 [2, 31] was 4.90. It also gave a GI50 [2, 32] of 4.67, a GI50 [2, 33] of 5.23 and a GI50 [2, 34] of 4.85. For the same molecule, the GI50 [2, 35] was 5.21, the GI50 ([2]; SUM52PE cell line, censored GI50 values) was 5.57 and the GI50 [2, 36] was 5.14. The GI50 [2, 37] was 5.23, the GI50 [2, 38] was 4.76 and the GI50 [2, 39] was 4.85. The GI50 [2, 40] was 4.31, the GI50 ([2]; T47D cell line, censored GI50 values) was 5.44 and the GI50 ([2]; UACC812 cell line, censored GI50 values) was 5.04. It also gave a GI50 ([2]; UACC893 cell line, censored GI50 values) of 5.54, a GI50 ([2]; ZR75B cell line, censored GI50 values) of 5.30 and a GI50 ([2]; ZR751 cell line, censored GI50 values) of 4.74. For the same molecule, the GI50 ([2]; cell line 600MPE) was 5.18, the GI50 ([2]; cell line AU565) was 5.43 and the GI50 ([2]; cell line BT20) was 4.81. For the same molecule, the GI50 ([2]; cell line BT474) was 5.00, the GI50 ([2]; cell line BT483) was 5.00 and the GI50 ([2]; cell line BT549) was 5.13. The GI50 ([2]; cell line CAMA1) was 5.57, the GI50 ([2]; cell line HCC38) was 5.22 and the GI50 ([2]; cell line HCC70) was 4.84. It also gave a GI50 ([2]; cell line HCC202) of 6.04, a GI50 ([2]; cell line HCC1143) of 4.77 and a GI50 ([2]; cell line HCC1187) of 5.32. For the same molecule, the GI50 ([2]; cell line HCC1395) was 4.50, the GI50 ([2]; cell line HCC1419) was 4.85 and the GI50 ([2]; cell line HCC1428) was 5.73. The GI50 ([2]; cell line HCC1500) was 4.82, the GI50 ([2]; cell line HCC1806) was 4.97 and the GI50 ([2]; cell line HCC1937) was 4.82. The GI50 ([2]; cell line HCC1954) was 4.95, the GI50 ([2]; cell line HCC2185) was 4.79 and the GI50 ([2]; cell line HCC3153) was 4.62. It also gave a GI50 ([2]; cell line LY2) of 4.86, a GI50 ([2]; cell line MCF7) of 5.16 and a GI50 ([2]; cell line MDAMB134V) of 5.17. The GI50 ([2]; cell line MDAMB157) was 4.68, the GI50 ([2]; cell line MDAMB175V) was 5.23 and the GI50 ([2]; cell line MDAMB231) was 5.26. For the same molecule, the GI50 ([2]; cell line MDAMB361) was 5.09, the GI50 ([2]; cell line MDAMB415) was 4.90 and the GI50 ([2]; cell line MDAMB436) was 4.67. The GI50 ([2]; cell line MDAMB453) was 5.23, the GI50 ([2]; cell line MDAMB468) was 4.85 and the GI50 ([2]; cell line SKBR3) was 5.21. The GI50 ([2]; cell line SUM52PE) was 5.57, the GI50 ([2]; cell line SUM149PT) was 5.14 and the GI50 ([2]; cell line SUM159PT) was 5.23. For the same molecule, the GI50 ([2]; cell line SUM185PE) was 4.76, the GI50 ([2]; cell line SUM225CWN) was 4.85 and the GI50 ([2]; cell line SUM1315MO) was 4.31. It also gave a GI50 ([2]; cell line T47D) of 5.44, a GI50 ([2]; cell line UACC812) of 5.04 and a GI50 ([2]; cell line UACC893) of 5.54. It also gave a GI50 ([2]; cell line ZR75B) of 5.30 and a GI50 ([2]; cell line ZR751) of 4.74.
In the case of `CCNCCCCNCCCCNCCCCNCCCCNCC=CCNCCCCNCCCCNCCCCNCCCCNCC.Cl.Cl.Cl.Cl.Cl.Cl.Cl.Cl.Cl.Cl` (stereo in doubt) [CGC-11144], the “association of response with ERBB2 amplification” value [1] is reported as “negatively associated with ERBB2 amplification”, the Subtype specificity [1] is reported as “not ERBB2AMP” and the GI50 [2, 3] is reported as 6.49. For the same molecule, the GI50 [2, 4] was 6.31, the GI50 [2, 5] was 6.52 and the GI50 [2, 6] was 6.02. The GI50 [2, 7] was 6.25, the GI50 [2, 8] was 6.65 and the GI50 [2, 9] was 6.40. For the same molecule, the GI50 [2, 10] was 6.81, the GI50 [2, 11] was 6.55 and the GI50 [2, 12] was 6.26. The GI50 [2, 13] was 6.88, the GI50 [2, 14] was 6.02 and the GI50 [2, 15] was 6.20. It also gave a GI50 [2, 16] of 6.30, a GI50 [2, 17] of 6.33 and a GI50 [2, 18] of 6.65. It also gave a GI50 [2, 19] of 6.71, a GI50 [2, 20] of 6.76 and a GI50 [2, 21] of 6.56. It also gave a GI50 [2, 22] of 6.60, a GI50 [2, 23] of 6.72 and a GI50 [2, 24] of 5.18. For the same molecule, the GI50 [2, 25] was 6.33, the GI50 [2, 26] was 6.38 and the GI50 [2, 27] was 6.96. For the same molecule, the GI50 [2, 28] was 6.75, the GI50 [2, 29] was 4.66 and the GI50 [2, 30] was 5.78. The GI50 [2, 31] was 6.78, the GI50 [2, 32] was 6.06 and the GI50 [2, 33] was 6.28. It also gave a GI50 [2, 34] of 6.17, a GI50 [2, 35] of 5.30 and a GI50 [2, 36] of 6.53. The GI50 [2, 37] was 6.60, the GI50 [2, 38] was 6.68 and the GI50 [2, 39] was 5.45. It also gave a GI50 [2, 40] of 5.69, a GI50 ([2]; cell line 600MPE) of 6.49 and a GI50 ([2]; cell line AU565) of 6.31. For the same molecule, the GI50 ([2]; cell line BT20) was 6.52, the GI50 ([2]; cell line BT474) was 6.02 and the GI50 ([2]; cell line BT483) was 6.25. For the same molecule, the GI50 ([2]; cell line BT549) was 6.65, the GI50 ([2]; cell line CAMA1) was 6.40 and the GI50 ([2]; cell line HCC38) was 6.81. The GI50 ([2]; cell line HCC70) was 6.55, the GI50 ([2]; cell line HCC202) was 6.26 and the GI50 ([2]; cell line HCC1143) was 6.88. For the same molecule, the GI50 ([2]; cell line HCC1187) was 6.02, the GI50 ([2]; cell line HCC1395) was 6.20 and the GI50 ([2]; cell line HCC1419) was 6.30. The GI50 ([2]; cell line HCC1428) was 6.33, the GI50 ([2]; cell line HCC1500) was 6.65 and the GI50 ([2]; cell line HCC1806) was 6.71. It also gave a GI50 ([2]; cell line HCC1937) of 6.76, a GI50 ([2]; cell line HCC1954) of 6.56 and a GI50 ([2]; cell line HCC2185) of 6.60. For the same molecule, the GI50 ([2]; cell line HCC3153) was 6.72, the GI50 ([2]; cell line LY2) was 5.18 and the GI50 ([2]; cell line MCF7) was 6.33. The GI50 ([2]; cell line MDAMB134V) was 6.38, the GI50 ([2]; cell line MDAMB157) was 6.96 and the GI50 ([2]; cell line MDAMB175V) was 6.75. It also gave a GI50 ([2]; cell line MDAMB231) of 4.66, a GI50 ([2]; cell line MDAMB361) of 5.78 and a GI50 ([2]; cell line MDAMB415) of 6.78. The GI50 ([2]; cell line MDAMB436) was 6.06, the GI50 ([2]; cell line MDAMB453) was 6.28 and the GI50 ([2]; cell line MDAMB468) was 6.17. For the same molecule, the GI50 ([2]; cell line SKBR3) was 5.30, the GI50 ([2]; cell line SUM52PE) was 6.79 and the GI50 ([2]; cell line SUM149PT) was 6.53. The GI50 ([2]; cell line SUM159PT) was 6.60, the GI50 ([2]; cell line SUM185PE) was 6.68 and the GI50 ([2]; cell line SUM225CWN) was 5.45. For the same molecule, the GI50 ([2]; cell line SUM1315MO) was 5.69, the GI50 ([2]; cell line T47D) was 6.96 and the GI50 ([2]; cell line UACC812) was 6.78. For the same molecule, the GI50 ([2]; cell line UACC893) was 6.60 and the GI50 ([2]; cell line ZR751) was 6.48.
